Data taken from patent US10450549B2, “Aryloxyphenoxypropionate tolerance in turfrgass species and use of AAD1 as a selectable marker” (Dow AgroSciences, LLC, priority 2004, dated 2019).

Tests used:
Non-transformed hybrids = assay: Field tolerance to quizalofop and 2,4-D: non-transformed hybrids; assay type: in vivo, corn; conditions: for % Injury 3 WAA (0-100 scale): 140 g ae/ha
Excerpt: Two field trials were established at field stations in Hawaii and Indiana. […] The hybrid Hi-II×5XH571 is of the same parentage as the AAD1 (v3) event lines. The hybrid Croplan 585SR is a sethoxydim resistant line.
The experimental design was a split-plot with four replications. The main plot was herbicide treatment and the sub-plot was AAD1 (v3) event or comparison hybrid. Plots were one row by 3.7 meters with approximately twenty-five seeds planted in each row. For AAD1 events, seeds from a different lineage within the event were planted in each replicate.
Glufosinate at 560 g ai/ha was applied to AAD1 (v3) plots at the V2 stage to eliminate non-transformed plants. […] Treatments were applied using backpack broadcast boom equipment delivering 187 L/ha carrier volume at 130-200 kpa pressure.
Quizalofop treated plots were visually assessed for crop injury at one and three weeks after application (WAA) using a 0-100% scale, where 0 equals no injury and 100 equals complete death.

[1] = tested on: AAD1 (v3) T1 tobacco (events 721(2)-013.010 and 721(3)-008.005); assay: Segregating AAD1 T1 tobacco response to phenoxy auxin herbicides; assay type: in vivo, Nicotiana tabacum; conditions: rates below 1× field rates (560 g ae/ha); either event
Excerpt: Two AAD1 (v3) tobacco lines (event 721(2)-013.010 and 721(3)-008.005) were chosen from the T0 generation. The T1 seed was stratified, and sown into selection trays much like that of Arabidopsis (Example 6.4), followed by selective removal of untransformed nulls in this segregating population with 280 g ai/ha glufosinate (PAT selection). Survivors were transferred to individual 3-inch pots in the greenhouse. […] Improved consistency of response is anticipated in T1 plants not having come directly from tissue culture. These plants were compared against wildtype KY 160 tobacco. All plants were sprayed with the use of a track sprayer set at 187 L/ha. […] All applications were formulated in 200 mM Hepes buffer (pH 7.5). Each treatment was replicated 4 times. Plants were evaluated at 3 and 14 days after treatment. Plants were assigned injury rating with respect to stunting, chlorosis, and necrosis. The T1 generation is segregating, so some variable response is expected due to difference in zygosity. (Table 28).

[2] = tested on: Agrostis palustris var. Pencross; assay: Bentgrass plate test bioassay for herbicide degradation; assay type: in vivo; conditions: AAD1 (v1) extract
Protocol: Because of the selective nature of the herbicides being tested (i.e., monocot plants controlled by AOPP herbicides and dicot plants controlled by auxinic herbicides), wildtype Agrostis palustris var. Pencross and Arabidopsis thaliana var. Columbia were used as monocot and dicot test species, respectively. Each species is amenable to germination and growth in small Petri dishes.
Twenty to thirty sterilized seeds for each test species used were added onto a sterile, solidified agar Plate Test Medium (PTM) [2.5 mM KNO3, 2.5 mM KH2PO4, […], 10 mM NaEDTA (pH 8.0), 2 mM MgSO4, 2 mM Ca(NO3) 2, 70 μM H3BO3, 14 μM MnCl2, 0.5 μM CuSO4, 1 μM ZnSO4, 0.2 μM NaMoO4.2H2O, 10 μM NaCl, 10 nM CoCl2.H2O, 0.8% (w/v) sucrose, 0.4% agarose (w/v)] for bioassay in 60×15-mm Petri dishes (Falcon 1007). PTM was additionally modified by adding up to six rates of test herbicide standards or herbicide-enzyme test solution dilutions such that the four-fold concentration increments covered a rate range of three orders of magnitude with the GR50 rate (50% growth reduction) approximately in the center of the range.
For herbicide-enzyme test solutions, the maximal concentration was determined based on the nominal concentration before any subsequent enzymatic degradation would occur. Seeds were evenly spread by adding 3 ml of melted PTM of the same composition, swirling, and allowing to solidify. Plates were sealed and maintained under sterile conditions in a low light growth chamber (24 h day^−1, 100 μE/m^2s^1, 23° C.) for 7 days. Root length or root+shoot length were measured for five randomly chosen Arabidopsis and bentgrass plants, respectively, average mean length (percent of untreated control) vs. nominal herbicide concentration and GR50 determined.

[3] = tested on: non-transformed (NT) ‘Shamrock’ Kentucky bluegrass; assay: Haloxyfop-R-methyl on non-transformed Kentucky bluegrass controls; assay type: in vivo; conditions: similar treatment regimes
Protocol: The selected T0 plants were sprayed with haloxyfop-R-methyl (Gallant Super®, DOW AGROSCIENCES, INC.) at rates ranging from 140 to 560 g ae/ha. […] This rate would also control susceptible monocot weed species. Measured amounts were placed individually in 25 mL glass vials and dissolved in a 12 mL volume of 1.0% (v/v) Agri-Dex® Crop Oil Concentrate (COC).
Spray solutions were applied to the plant material with an overhead Mandel™ track sprayer equipped with a 8002E nozzles calibrated to deliver 187 L/ha over an application area of 0.503 square meters (m^2) at a spray height of 18 inches (46 cm) above average plant canopy height. Control plants were sprayed in the same manner with the COC blank.
The treated plants and control plants were placed in a greenhouse and watered by sub-irrigation to prevent wash-off of the test compounds. At various times after application, the condition of the test plants as compared with that of the untreated plants was determined visually and scored on a scale of 0 to 100 percent, where 0 corresponds to no injury or growth inhibition, and 100 corresponds to complete kill. Regenerated, non-transformed (NT) ‘Shamrock’ Kentucky bluegrass plants and/or seed-derived clonally propagated plants served as haloxyfop sensitive controls.

[4] = tested on: T2 lineages from 3404 transformations; assay: Quizalofop tolerance with respect to AAD1 (v3) expression in T2 3404 lineages; assay type: in vivo, corn
[5] = tested on: ‘Justice’ tall fescue transgenic events; assay: Quizalofop on AAD1 ‘Justice’ tall fescue plants; assay type: in vivo; conditions: written in present tense
Protocol: ‘Justice’ tall fescue transgenic plants events were selected on tissue culture media containing quizalofop, and confirmed via PCR amplification of an inserted T-strand.
A growth medium was prepared by mixing Promix® and sand in a 2 to 1 ratio. The medium was contained in plastic pots. When required to maintain plant health, a fungicide, insecticide, and/or other chemical or physical treatment was applied to stock plants. The plants were maintained in a greenhouse and treated with fertilizer and growth supplements as needed and water was added on a regular basis. Supplemental lighting was provided.
The selected T0 plants are sprayed with quizalofop at rates ranging in concentration, beyond the typical in field usage rate. This rate structure is selected based on the GR90 (herbicide rate which produces 90% injury and/or growth inhibition) and the rate that would also control susceptible monocot weed species. […]
The treated plants and control plants are placed in a greenhouse and watered by sub-irrigation to prevent wash-off of the test compounds. At various times after application, the condition of the test plants as compared with that of the untreated plants is determined visually and scored on a scale of 0 to 100 percent, where 0 corresponds to no injury or growth inhibition, and 100 corresponds to complete kill. […]

`O=C(O)COc1ccc(Cl)cc1Cl` [2,4-D, 2,4-dichlorophenoxyacetic acid] was tested, and the “epinastic leaning in non-transformed hybrids” value (Non-transformed hybrids; 1120 g ae/ha, 2 DAA) was 11-33%, the “brace root deformation rating (0-10 scale)” value (Non-transformed hybrids; 1120 g ae/ha, non-transformed hybrids, 3-4 WAA) was 9 and the “injury of T1 AAD1 (v3) tobacco” value [1] was “No injury was observed”.

For `CC(Oc1ccc(Oc2ncc(C(F)(F)F)cc2Cl)cc1)C(=O)O` (centres unmarked) [haloxyfop], the “herbicidal activity after AAD1 (v1) treatment, bentgrass plate bioassay” value [2] was “loss of herbicidal activity” and the “injury of control, non-transgenic plants” value [3] was 60-100%.

`C[C@@H](Oc1ccc(Oc2cnc3cc(Cl)ccc3n2)cc1)C(=O)O` [quizalofop] was tested, and the “injury of non-transformed hybrids” value (Non-transformed hybrids; 70 g ae/ha, field) was 80-100%, the “% Injury 3 WAA (0-100 scale)” value (Non-transformed hybrids; HI, CROPLAN 585SR) was 96% and the “% Injury 3 WAA (0-100 scale)” value (Non-transformed hybrids; HI, DK493) was 100%. For the same compound, the “% Injury 3 WAA (0-100 scale)” value (Non-transformed hybrids; HI, HI-II X 5XH571) was 100%, the “% Injury 3 WAA (0-100 scale)” value (Non-transformed hybrids; IN, CROPLAN 585SR) was 80% and the “% Injury 3 WAA (0-100 scale)” value (Non-transformed hybrids; IN, DK493) was 100%. For the same compound, the “% Injury 3 WAA (0-100 scale)” value (Non-transformed hybrids; IN, HI-II X 5XH571) was 100%, the “highest level tested at which corn expressing AAD1 (v3) is protected from injury” value [4] was 2,240 g/ha and the “injury of tall fescue events compared to non-transgenic control plants” value [5] was “less injury”.
